The nature of this series: RP, Thermo Scientific Hypersil GOLD, 1.9 µm, 40 °C, 0.4 mL/min; A: water + 0.1% formic acid, pH 3; B: acetonitrile + 0.1% formic acid, pH 3; gradient (min/%B) 0/0 1/0 11/100 13/100 14/0 16/0. Conditions: stereoisomer not certain.

On to `CSCC1OC(n2cnc3c(N)ncnc32)C(O)C1O` (stereo not given) [METHYLTHIOADENOSINE], for which the LC retention time was found to be 4.41 min. Take `CC(O)(CCO)CC(=O)[O-]` (stereo not given) [MEVALONATE]: the LC retention time is 0.55 min. As to `OC1C(O)C(O)C(O)C(O)C1O` (stereo not given) [MYOINOSITOL], the LC retention time was 0.61 min. `OCC1OC(OC2C(CO)OC(OC3C(CO)OC(O)C(O)C3O)C(O)C2O)C(O)C(O)C1O` (stereo not given) [Maltotriose]: the LC retention time came out at 0.61 min. Take `CC(CC(=O)O)C(=O)O` (stereo not given) [Methyl-succinic acid]: the LC retention time turned out to be 3.66 min.

On to `O=c1c(O)c(-c2ccc(O)cc2O)oc2cc(O)cc(O)c12` [Morin hydrate], for which the LC retention time stood at 6.29 min.

Take `CC(=O)NCCCNCCCCNCCCN` [N1-ACETYLSPERMINE]: the LC retention time is 0.5 min. On to `CC(C)=CCNc1ncnc2nc[nH]c12` [N6-(DELTA2-ISOPENTENYL)-ADENINE], for which the LC retention time is 5.26 min. In the case of `CC(=O)NC(C)C(=O)O` (stereo not given) [N-ACETYLALANINE], the LC retention time came to 1.24 min.

As to `CC(=O)NC(CC(=O)O)C(=O)O` (stereo not given) [N-ACETYLASPARTATE], the LC retention time was determined as 0.83 min. In the case of `CC(=O)NC(CS)C(=O)O` (stereo not given) [N-ACETYLCYSTEINE], the LC retention time worked out at 1.9 min. For `CC(=O)NC(CCC(=O)O)C(=O)O` (stereo not given) [N-ACETYLGLUTAMATE] the value was 0.93 min; for `CC(=O)NCC(=O)O` [N-ACETYLGLYCINE], 0.83 min. Take `CC(=O)NC(CC(C)C)C(=O)O` (stereo not given) [N-ACETYLLEUCINE]: the LC retention time worked out at 5.47 min. For the compound `CSCCC(NC(C)=O)C(=O)O` (stereo not given) [N-ACETYLMETHIONINE], the LC retention time worked out at 4.61 min. For `CC(=O)NC(Cc1ccccc1)C(=O)O` (stereo not given) [N-ACETYLPHENYLALANINE] the value was 5.73 min. Regarding `CC(=O)NCCCCN` [N-ACETYLPUTRESCINE], the LC retention time is 0.71 min. For `CC(=O)NC(CO)C(=O)O` (stereo not given) [N-ACETYLSERINE] the value was 0.78 min; for `CC(=O)NCCc1c[nH]c2ccc(O)cc12` [N-ACETYLSEROTONIN], 4.86 min; for `CC(=O)NC(Cc1c[nH]c2ccccc12)C(=O)O` (stereo not given) [N-ACETYLTRYPTOPHAN], 5.83 min.

In the case of `CC(=O)NC(CCCC[NH3+])C(=O)[O-]` (stereo not drawn) [N-ALPHA-ACETYLLYSINE], the LC retention time is 0.72 min. For the compound `CCCCCCCCCCCCCC=CC(O)C(CO)NC(C)=O` [N-Acetyl-D-sphingosine], the LC retention time is 10.8 min. For `CC(=O)N[C@@H](Cc1ccc(O)cc1)C(=O)O` [N-Acetyl-L-tyrosine], the LC retention time is 4.56 min. Turning to `CSCC[C@H](NC=O)C(=O)O` [N-FORMYL-L-METHIONINE], the LC retention time was 4.28 min. Regarding `O=CNCC(=O)O` [N-FORMYLGLYCINE], the LC retention time worked out at 0.74 min.

With `CNC(CC(=O)O)C(=O)O` (stereo not given) [N-METHYLASPARTATE], the LC retention time worked out at 0.63 min. Consider `CNC(CCC(=O)O)C(=O)O` (stereo not given) [N-METHYLGLUTAMATE], for which the LC retention time is 0.66 min. Regarding `CNCCc1c[nH]c2ccccc12` [N-METHYLTRYPTAMINE], the LC retention time came to 4.93 min. As to `CN(C)c1ccc(N)cc1` [N-N-DIMETHYL-1-4-PHENYLENEDIAMINE], the LC retention time is 0.83 min. With `C[N+](C)(C)CCCCC(N)C(=O)[O-]` (stereo not given) [N-N-N-TRIMETHYLLYSINE] the figure was 0.59 min. With `CN(C)CC(=O)O` [N-N-dimethylglycine] the figure was 0.63 min; with `c1ccc(CNc2ccccc2)cc1` [N-benzylaniline], 8.5 min; with `Cn1cc(C(N)=O)ccc1=O` [N-methyl-2-pyridone-5-carboxamide], 1.6 min. As to `NC(=O)c1ccc[n+](C2OC(COP(=O)(O)OP(=O)(O)OCC3OC(n4cnc5c(N)ncnc54)C(OP(=O)(O)O)C3O)C(O)C2O)c1` (stereo not given) [NADP], the LC retention time came to 4.21 min. For `CCCCCCCCC=CCCCCCCCCCCCCCC(=O)[O-]` [NERVONATE] the value was 14 min. As to `NC(=O)c1ccc[n+](C2OC(COP(=O)(O)OP(=O)(O)OCC3OC(n4cnc5c(=O)[nH]cnc54)C(O)C3O)C(O)C2O)c1` (stereo not given) [NICOTINAMIDE HYPOXANTHINE DINUCLEOTIDE], the LC retention time is 0.82 min. `NC(=O)c1ccc[n+](C2OC(COP(=O)([O-])O)C(O)C2O)c1` (stereo not given) [NICOTINAMIDE MONONUCLEOTIDE]: the LC retention time came out at 0.68 min. As for `NC(=O)c1cccnc1` [NICOTINAMIDE], the LC retention time worked out at 0.83 min.

Consider `NCC(O)c1ccc(O)c(O)c1` (stereo not given) [NORADRENALINE], for which the LC retention time amounted to 0.65 min. For `CCCCC(N)C(=O)O` (stereo not given) [NORLEUCINE], the LC retention time came out at 1.67 min. For `COc1cc(C(O)CN)ccc1O` (stereo not given) [NORMETANEPHRINE] the value was 0.82 min; for `NCCCNCCCN` [NORSPERMIDINE], 0.49 min; for `CCCC(N)C(=O)O` (stereo not given) [NORVALINE], 0.82 min.

For `O=C1CC(c2ccc(O)cc2)Oc2cc(O)cc(O)c21` (stereo not given) [Naringenin], the LC retention time is 7.04 min. Consider `O=C(O)c1ccc[n+]([O-])c1` [Nicotinic acid N-oxide], for which the LC retention time was 0.83 min.

Turning to `O=C(O)c1cccnc1` [Nicotinic acid], the LC retention time was 0.81 min. For `CC(=O)OCC(N)C(=O)O` (stereo not given) [O-ACETYLSERINE] the value was 0.69 min; for `NCCOP(=O)(O)O` [O-PHOSPHOETHANOLAMINE], 0.61 min; for `NC(CCOC(=O)CCC(=O)O)C(=O)O` (stereo not given) [O-SUCCINYL-HOMOSERINE], 0.82 min. For `CCCCCCCCC=CCCCCCCCC(=O)OCC(O)CO` (stereo not given) [OLEOYL-GLYCEROL], the LC retention time is 12.1 min. On to `O=C(O)CCCCCCCCCCCO` [OMEGA-HYDROXYDODECANOATE], for which the LC retention time came to 7.84 min. Take `CCC(NC(=O)CCC(N)C(=O)O)C(=O)NCC(=O)O` (stereo not given) [OPHTHALMATE]: the LC retention time came out at 0.83 min.

Regarding `O=C([O-])c1cc(=O)[nH]c(=O)[nH]1` [OROTATE], the LC retention time amounted to 0.77 min.

As to `O=C1CCC(C(=O)O)N1` (stereo not given) [OXOPROLINE], the LC retention time was found to be 0.82 min. For `CCCCCCCC(=O)OC(CC(=O)[O-])C[N+](C)(C)C` [Octanoyl-L-carnitine] the value was 6.74 min; for `NCC(O)c1ccc(O)cc1` (stereo not given) [P-OCTOPAMINE], 0.71 min; for `OCC1OC(OCC2OC(O)(CO)C(O)C2O)C(O)C(O)C1O` (stereo not given) [PALATINOSE], 0.67 min. For `CCCCCCC=CCCCCCCCC(=O)O` [PALMITOLEATE] the value was 11.7 min; for `CC(C)(CO)C(O)C(=O)NCCC(=O)O` (stereo not given) [PANTOTHENATE], 4.11 min; for `Cn1c(=O)[nH]c2ncn(C)c2c1=O` [PARAXANTHINE], 4.41 min. For `CCCCCCCCCCCC=CCCCCC(=O)[O-]` [PETROSELINATE], the LC retention time was determined as 12.5 min. With `NCCc1ccccc1` [PHENETHYLAMINE] the figure was 4.03 min; with `Oc1ccccc1` [PHENOL], 6.21 min; with `O=CCc1ccccc1` [PHENYLACETALDEHYDE], 10.3 min. For the compound `NCC(O)c1ccccc1` (stereo not given) [PHENYLETHANOLAMINE], the LC retention time turned out to be 2.24 min.

The values are drawn from the RepoRT retention time repository.
